In ChEMBL document CHEMBL5584238, “Psammaplin A analogues with modified disulfide bond targeting histone deacetylases: Synthesis and biological evaluation” (Eur J Med Chem, 2024):
Each block holds one compound with its values, some of them ahead of it. The source made the active and inactive calls. The rule behind the calls is not given here.

Assays:
HCT-116 [1] = experiment: Antiproliferative activity against human HCT-116 cells incubated for 48 hrs by MTT assay; format: functional, cell-based; conditions: HCT-116, 48 h
[2] = target: T1, Class 1 histone deacetylase (Homo sapiens) (UniProt Q13547+O15379+Q92769+Q9BY41); experiment: Inhibition of class 1 HDACs in human HCT-116 cells assessed as upregulation of acetylated alpha-H3 level at 1 uM incubated for 24 hrs by Western blotting analysis; format: cell-based
[3] = target: T2, Protein deacetylase HDAC6 (Homo sapiens) (UniProt Q9UBN7); experiment: Inhibition of HDAC6 in human HCT-116 cells assessed as upregulation of acetylated alpha-tubulin level at 1 uM incubated for 24 hrs by Western blotting analysis; format: cell-based
T2 sequence (whole entry): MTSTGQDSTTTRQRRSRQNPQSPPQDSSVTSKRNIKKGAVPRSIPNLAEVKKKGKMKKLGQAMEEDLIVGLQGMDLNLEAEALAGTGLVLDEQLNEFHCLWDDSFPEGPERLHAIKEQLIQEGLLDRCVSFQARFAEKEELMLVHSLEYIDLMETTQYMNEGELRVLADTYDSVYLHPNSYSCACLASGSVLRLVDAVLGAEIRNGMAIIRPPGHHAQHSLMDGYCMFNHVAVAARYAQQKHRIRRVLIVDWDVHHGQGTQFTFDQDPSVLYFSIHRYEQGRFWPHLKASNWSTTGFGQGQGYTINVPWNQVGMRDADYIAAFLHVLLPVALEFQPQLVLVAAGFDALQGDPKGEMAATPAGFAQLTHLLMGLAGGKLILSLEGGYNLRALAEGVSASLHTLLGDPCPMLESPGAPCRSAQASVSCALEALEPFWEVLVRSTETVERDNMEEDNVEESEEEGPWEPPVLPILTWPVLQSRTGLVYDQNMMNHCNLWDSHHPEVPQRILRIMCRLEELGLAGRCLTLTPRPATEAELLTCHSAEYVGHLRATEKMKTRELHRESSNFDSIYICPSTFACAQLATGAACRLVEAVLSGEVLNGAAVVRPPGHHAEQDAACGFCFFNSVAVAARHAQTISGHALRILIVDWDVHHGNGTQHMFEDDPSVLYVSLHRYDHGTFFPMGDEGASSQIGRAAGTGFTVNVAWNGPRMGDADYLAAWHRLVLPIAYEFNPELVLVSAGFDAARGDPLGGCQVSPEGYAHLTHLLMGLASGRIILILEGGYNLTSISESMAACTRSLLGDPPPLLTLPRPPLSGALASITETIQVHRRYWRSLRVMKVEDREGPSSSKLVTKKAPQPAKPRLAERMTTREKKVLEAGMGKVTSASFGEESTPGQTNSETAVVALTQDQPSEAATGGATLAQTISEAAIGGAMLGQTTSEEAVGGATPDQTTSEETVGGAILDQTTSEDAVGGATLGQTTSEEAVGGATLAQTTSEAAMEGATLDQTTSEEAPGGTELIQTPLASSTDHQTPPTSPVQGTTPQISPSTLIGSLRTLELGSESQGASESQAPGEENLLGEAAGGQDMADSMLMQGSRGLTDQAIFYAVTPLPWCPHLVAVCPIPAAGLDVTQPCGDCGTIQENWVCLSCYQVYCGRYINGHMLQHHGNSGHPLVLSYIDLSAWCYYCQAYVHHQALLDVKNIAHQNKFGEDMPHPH

Histone deacetylase 1 = Histone deacetylase 1 (Homo sapiens, UniProt Q13547); experiment: Inhibition of recombinant human HDAC1 using Boc-Lys(Ac)-AMC as substrate preincubated for 1 hr followed by substrate addition and measured after 2 hrs by microplate reader assay
HCT-116 [4] = experiment: Induction of cell cycle arrest in human HCT-116 cells assessed as accumulation of cells at G1 phase at 1 uM after 24 hrs by PI staining based flow cytometry analysis (reference value: 37.9%); format: functional
HCT-116 [5] = experiment: Induction of cell cycle arrest in human HCT-116 cells assessed as accumulation of cells at S phase at 1 uM after 24 hrs by PI staining based flow cytometry analysis (reference value: 52.8%); format: functional
HCT-116 [6] = experiment: Induction of cell cycle arrest in human HCT-116 cells assessed as accumulation of cells at G2/M phase at 1 uM after 24 hrs by PI staining based flow cytometry analysis (reference value: 9.3%); format: functional
HCT-116 [7] = experiment: Induction of cell cycle arrest in human HCT-116 cells assessed as accumulation of cells at G1 phase at 2 uM after 24 hrs by PI staining based flow cytometry analysis (reference value: 37.9%); format: functional
HCT-116 [8] = experiment: Induction of cell cycle arrest in human HCT-116 cells assessed as accumulation of cells at S phase at 2 uM after 24 hrs by PI staining based flow cytometry analysis (reference value: 52.8%); format: functional
HCT-116 [9] = experiment: Induction of cell cycle arrest in human HCT-116 cells assessed as accumulation of cells at G2/M phase at 2 uM after 24 hrs by PI staining based flow cytometry analysis (reference value: 9.3%); format: functional
HCT-116 [10] = experiment: Induction of apoptosis in human HCT-116 cells assessed as viable cells at 2 uM incubated for 24 hrs by Annexin V-FITC/PI staining based flow cytometry analysis ( Rvb = 92.2%); format: functional; conditions: read-out: Activity
HCT-116 [11] = experiment: Induction of apoptosis in human HCT-116 cells assessed as early apoptotic cells at 2 uM incubated for 24 hrs by Annexin V-FITC/PI staining based flow cytometry analysis ( Rvb = 2.36%); format: functional
HCT-116 [12] = experiment: Induction of apoptosis in human HCT-116 cells assessed as late apoptotic cells at 2 uM incubated for 24 hrs by Annexin V-FITC/PI staining based flow cytometry analysis ( Rvb = 5.32%); format: functional
HCT-116 [13] = experiment: Induction of apoptosis in human HCT-116 cells assessed as necrotic cells at 2 uM incubated for 24 hrs by Annexin V-FITC/PI staining based flow cytometry analysis ( Rvb = 0.24%); format: functional
HCT-116 [14] = experiment: Induction of apoptosis in human HCT-116 cells assessed as viable cells at 4 uM incubated for 24 hrs by Annexin V-FITC/PI staining based flow cytometry analysis ( Rvb = 92.2%); format: functional; conditions: read-out: Activity
HCT-116 [15] = experiment: Induction of apoptosis in human HCT-116 cells assessed as early apoptotic cells at 4 uM incubated for 24 hrs by Annexin V-FITC/PI staining based flow cytometry analysis ( Rvb = 2.36%); format: functional
HCT-116 [16] = experiment: Induction of apoptosis in human HCT-116 cells assessed as late apoptotic cells at 4 uM incubated for 24 hrs by Annexin V-FITC/PI staining based flow cytometry analysis ( Rvb = 5.32%); format: functional
HCT-116 [17] = experiment: Induction of apoptosis in human HCT-116 cells assessed as necrotic cells at 4 uM incubated for 24 hrs by Annexin V-FITC/PI staining based flow cytometry analysis ( Rvb = 0.24%); format: functional
HCT-116 [18] = experiment: Antitumor activity against human HCT-116 cells xenografted with BALB/c nude mouse assessed as tumor growth inhibition at 10 mg/kg, ip administered every 2 days for 26 days; format: functional; conditions: HCT-116, 624 h, time 26 day, read-out: TGI
EBC-1 = experiment: Antiproliferative activity against human EBC-1 cells incubated for 48 hrs by MTT assay; format: functional, cell-based; conditions: EBC-1, 48 h
NCI-H1581 = experiment: Antiproliferative activity against human NCI-H1581 cells incubated for 48 hrs by MTT assay; format: functional, cell-based; conditions: NCI-H1581, 48 h
[19] = target: T1, Class 1 histone deacetylase (Homo sapiens); experiment: Inhibition of class 1 HDACs in human HCT-116 cells assessed as upregulation of acetylated alpha-H3 level incubated for 24 hrs by Western blotting analysis; format: cell-based; conditions: dose 0.5-4 µM
[20] = target: T2, Protein deacetylase HDAC6 (Homo sapiens); experiment: Inhibition of HDAC6 in human HCT-116 cells assessed as upregulation of acetylated alpha-tubulin level incubated for 24 hrs by Western blotting analysis; format: cell-based; conditions: dose 0.5-4 µM
HCT-116 [21] = experiment: Induction of cell cycle arrest in human HCT-116 cells assessed as accumulation of cells at G1 phase at 0.1 uM after 24 hrs by PI staining based flow cytometry analysis (reference value: 37.9%); format: functional
HCT-116 [22] = experiment: Induction of cell cycle arrest in human HCT-116 cells assessed as accumulation of cells at S phase at 0.1 uM after 24 hrs by PI staining based flow cytometry analysis (reference value: 52.8%); format: functional
HCT-116 [23] = experiment: Induction of cell cycle arrest in human HCT-116 cells assessed as accumulation of cells at G2/M phase at 0.1 uM after 24 hrs by PI staining based flow cytometry analysis (reference value: 9.3%); format: functional
HCT-116 [24] = experiment: Induction of cell cycle arrest in human HCT-116 cells assessed as accumulation of cells at G1 phase at 0.2 uM after 24 hrs by PI staining based flow cytometry analysis (reference value: 37.9%); format: functional
HCT-116 [25] = experiment: Induction of cell cycle arrest in human HCT-116 cells assessed as accumulation of cells at S phase at 0.2 uM after 24 hrs by PI staining based flow cytometry analysis (reference value: 52.8%); format: functional
HCT-116 [26] = experiment: Induction of cell cycle arrest in human HCT-116 cells assessed as accumulation of cells at G2/M phase at 0.2 uM after 24 hrs by PI staining based flow cytometry analysis (reference value: 9.3%); format: functional
HCT-116 [27] = experiment: Induction of cell cycle arrest in human HCT-116 cells assessed as accumulation of cells at G1 phase at 0.4 uM after 24 hrs by PI staining based flow cytometry analysis (reference value: 37.9%); format: functional
HCT-116 [28] = experiment: Induction of cell cycle arrest in human HCT-116 cells assessed as accumulation of cells at S phase at 0.4 uM after 24 hrs by PI staining based flow cytometry analysis (reference value: 52.8%); format: functional
HCT-116 [29] = experiment: Induction of cell cycle arrest in human HCT-116 cells assessed as accumulation of cells at G2/M phase at 0.4 uM after 24 hrs by PI staining based flow cytometry analysis (reference value: 9.3%); format: functional
HCT-116 [30] = experiment: Induction of apoptosis in human HCT-116 cells assessed as viable cells at 0.2 uM incubated for 24 hrs by Annexin V-FITC/PI staining based flow cytometry analysis ( Rvb = 92.2%); format: functional; conditions: read-out: Activity
HCT-116 [31] = experiment: Induction of apoptosis in human HCT-116 cells assessed as early apoptotic cells at 0.2 uM incubated for 24 hrs by Annexin V-FITC/PI staining based flow cytometry analysis ( Rvb = 2.36%); format: functional
HCT-116 [32] = experiment: Induction of apoptosis in human HCT-116 cells assessed as late apoptotic cells at 0.2 uM incubated for 24 hrs by Annexin V-FITC/PI staining based flow cytometry analysis ( Rvb = 5.32%); format: functional
HCT-116 [33] = experiment: Induction of apoptosis in human HCT-116 cells assessed as necrotic cells at 0.2 uM incubated for 24 hrs by Annexin V-FITC/PI staining based flow cytometry analysis ( Rvb = 0.24%); format: functional
HCT-116 [34] = experiment: Induction of apoptosis in human HCT-116 cells assessed as viable cells at 0.4 uM incubated for 24 hrs by Annexin V-FITC/PI staining based flow cytometry analysis ( Rvb = 92.2%); format: functional; conditions: read-out: Activity
HCT-116 [35] = experiment: Induction of apoptosis in human HCT-116 cells assessed as early apoptotic cells at 0.4 uM incubated for 24 hrs by Annexin V-FITC/PI staining based flow cytometry analysis ( Rvb = 2.36%); format: functional
HCT-116 [36] = experiment: Induction of apoptosis in human HCT-116 cells assessed as late apoptotic cells at 0.4 uM incubated for 24 hrs by Annexin V-FITC/PI staining based flow cytometry analysis ( Rvb = 5.32%); format: functional
HCT-116 [37] = experiment: Induction of apoptosis in human HCT-116 cells assessed as necrotic cells at 0.4 uM incubated for 24 hrs by Annexin V-FITC/PI staining based flow cytometry analysis ( Rvb = 0.24%); format: functional

T1 sequence (O15379 whole entry, looked up): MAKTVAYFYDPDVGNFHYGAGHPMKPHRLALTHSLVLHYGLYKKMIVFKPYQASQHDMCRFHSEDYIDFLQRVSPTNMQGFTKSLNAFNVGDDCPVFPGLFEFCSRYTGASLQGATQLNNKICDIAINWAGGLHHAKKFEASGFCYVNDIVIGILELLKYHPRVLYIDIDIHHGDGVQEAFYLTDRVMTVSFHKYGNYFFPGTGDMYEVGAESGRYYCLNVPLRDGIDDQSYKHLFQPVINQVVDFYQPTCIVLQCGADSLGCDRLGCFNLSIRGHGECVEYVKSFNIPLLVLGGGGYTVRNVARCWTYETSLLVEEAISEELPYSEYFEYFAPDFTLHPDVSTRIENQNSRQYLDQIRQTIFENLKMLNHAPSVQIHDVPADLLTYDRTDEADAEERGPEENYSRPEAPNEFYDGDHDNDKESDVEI
T1 sequence (Q13547 whole entry, looked up): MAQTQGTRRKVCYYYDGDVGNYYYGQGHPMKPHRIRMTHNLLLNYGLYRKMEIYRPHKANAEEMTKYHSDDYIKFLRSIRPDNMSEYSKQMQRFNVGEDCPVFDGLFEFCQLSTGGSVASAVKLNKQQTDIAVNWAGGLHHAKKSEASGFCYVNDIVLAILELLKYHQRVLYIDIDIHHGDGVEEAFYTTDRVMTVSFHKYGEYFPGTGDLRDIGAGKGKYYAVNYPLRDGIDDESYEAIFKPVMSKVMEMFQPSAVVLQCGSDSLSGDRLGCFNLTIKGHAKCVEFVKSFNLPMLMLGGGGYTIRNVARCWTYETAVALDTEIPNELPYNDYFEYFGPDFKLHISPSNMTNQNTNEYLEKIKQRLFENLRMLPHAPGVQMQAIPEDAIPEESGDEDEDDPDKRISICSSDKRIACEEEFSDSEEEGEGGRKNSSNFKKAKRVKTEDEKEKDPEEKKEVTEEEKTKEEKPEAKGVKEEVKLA
T1 sequence (Q92769 whole entry, looked up): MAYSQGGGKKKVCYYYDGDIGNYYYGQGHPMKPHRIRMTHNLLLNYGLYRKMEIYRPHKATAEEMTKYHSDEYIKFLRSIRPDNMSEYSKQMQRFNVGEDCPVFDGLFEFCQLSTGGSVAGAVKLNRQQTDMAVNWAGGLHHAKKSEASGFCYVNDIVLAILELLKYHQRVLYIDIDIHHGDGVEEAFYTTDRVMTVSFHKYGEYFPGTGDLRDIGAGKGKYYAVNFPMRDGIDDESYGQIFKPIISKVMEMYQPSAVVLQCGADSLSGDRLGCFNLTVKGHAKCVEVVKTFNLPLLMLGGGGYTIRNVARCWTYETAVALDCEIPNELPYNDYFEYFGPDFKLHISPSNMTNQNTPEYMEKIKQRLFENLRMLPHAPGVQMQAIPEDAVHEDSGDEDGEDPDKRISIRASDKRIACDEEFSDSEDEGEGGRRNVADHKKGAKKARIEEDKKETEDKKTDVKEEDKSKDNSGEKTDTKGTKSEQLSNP
T1 sequence (Q9BY41 whole entry, looked up): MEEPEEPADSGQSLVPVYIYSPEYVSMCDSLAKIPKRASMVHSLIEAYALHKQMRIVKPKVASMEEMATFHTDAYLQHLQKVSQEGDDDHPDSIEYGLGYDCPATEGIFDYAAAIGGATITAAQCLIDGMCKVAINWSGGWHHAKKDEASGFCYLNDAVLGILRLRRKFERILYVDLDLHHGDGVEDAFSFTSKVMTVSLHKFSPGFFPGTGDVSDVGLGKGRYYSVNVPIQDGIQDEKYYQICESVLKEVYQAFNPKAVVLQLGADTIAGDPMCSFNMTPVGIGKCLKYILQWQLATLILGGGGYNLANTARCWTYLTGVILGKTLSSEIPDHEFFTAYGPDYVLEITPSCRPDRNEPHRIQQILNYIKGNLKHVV
Histone deacetylase 1, sequence (Q13547 whole entry): as the sequence (Q13547 whole entry, looked up) above

IC50 (HCT-116 [1]): 3050 nM
inhibition [2]: Active
inhibition [3]: inactive
IC50 (Histone deacetylase 1): 26 nM
SMILES: O=C(NCCSSCCNC(=O)/C(Cc1ccc(O)c(Br)c1)=N/O)/C(Cc1ccc(O)c(Br)c1)=N/O [PSAMMAPLIN A]
Activity (HCT-116 [4]): 45.72%
Activity (HCT-116 [5]): 41.24%
Activity (HCT-116 [6]): 13.05%
Activity (HCT-116 [7]): 55.34%
Activity (HCT-116 [8]): 28.56%
Activity (HCT-116 [9]): 16.09%
viability at 2 µM (HCT-116 [10]): 74.8%
Activity (HCT-116 [11]): 9.74%
Activity (HCT-116 [12]): 14.8%
Activity (HCT-116 [13]): 0.67%
viability at 4 µM (HCT-116 [14]): 42.5%
Activity (HCT-116 [15]): 16.2%
Activity (HCT-116 [16]): 40.3%
Activity (HCT-116 [17]): 1.06%
inhibition in vivo at 10 mg/kg (HCT-116 [18]): 36.1%

IC50 (HCT-116 [1]): 290 nM
IC50 (NCI-H1581): 480 nM
inhibition [2]: Active
inhibition [3]: Active
inhibition [19]: Dose-Dependent Effect
inhibition [20]: Dose-Dependent Effect
SMILES: O=C(NCC[Se][Se]CCNC(=O)/C(Cc1ccc(Br)o1)=N/O)/C(Cc1ccc(Br)o1)=N/O
IC50 (EBC-1): 620 nM
Activity (HCT-116 [21]): 35.83%
Activity (HCT-116 [22]): 45.66%
Activity (HCT-116 [23]): 18.51%
Activity (HCT-116 [24]): 51.33%
Activity (HCT-116 [25]): 31.39%
Activity (HCT-116 [26]): 17.28%
Activity (HCT-116 [27]): 56.35%
Activity (HCT-116 [28]): 24.54%
Activity (HCT-116 [29]): 19.11%
viability at 0.2 µM (HCT-116 [30]): 80.6%
Activity (HCT-116 [31]): 11.4%
Activity (HCT-116 [32]): 18.2%
Activity (HCT-116 [33]): 0.001%
viability at 0.4 µM (HCT-116 [34]): 70.3%
Activity (HCT-116 [35]): 17.8%
Activity (HCT-116 [36]): 11.9%
Activity (HCT-116 [37]): 0%
